Literature values in patent US20260201040A1, “TREATMENT OF SICKLE CELL DISEASE” (BioLineRx Ltd., priority 2022, published 2026).

System: CD34+ HSCs
Details: short-acting CXCR4i, alone

c1cc(CN2CCCNCCNCCCNCC2)ccc1CN1CCCNCCNCCCNCC1 [plerixafor]
yield of optimal HSC numbers for gene therapy applications: does not reliably yield optimal HSC numbers
